According to patent US6136830A, “Sulphonyloxadiazolones and their use as microbicides” (Bayer Aktiengesellschaft, priority 1997, dated 2000):

Legend:
Phytophthora infestans = assay: whole plant or invertebrate; format: in vivo, Phytophthora infestans (on tomato plants); conditions: in Solanum lycopersicum, 72 h, read-out: Efficacy in %
[1] = log P by HPLC (EEC-Directive 79/831 Annex V. A8); format: physicochemical; conditions: gradient method, acetonitrile/0.1% aqueous phosphoric acid
Protocol: The log P values were determined according to EEC-Directive 79/831 Annex V. A8 by HPLC (gradient method, acetonitrile/0.1% aqueous phosphoric acid).

Compound: Cc1noc(C)c1S(=O)(=O)n1c(N(C)C2CCCCC2)noc1=O
- pest or weed control at 50 g/ha (Phytophthora infestans): 85%

Compound: Cc1ccc(C)c(Oc2noc(=O)n2S(=O)(=O)c2c(C)noc2C)c1
- pest or weed control at 50 g/ha (Phytophthora infestans): 94%

Compound: Cc1ccc(C)c(Oc2noc(=O)n2S(=O)(=O)c2c(N)noc2C)c1
- pest or weed control at 50 g/ha (Phytophthora infestans): 96%

Compound: Cc1ccc(Oc2noc(=O)n2S(=O)(=O)c2c(C)noc2C)cc1C
- pest or weed control at 50 g/ha (Phytophthora infestans): 95%

Compound: Cc1ccc(Oc2noc(=O)n2S(=O)(=O)c2c(N)noc2C)cc1C
- pest or weed control at 50 g/ha (Phytophthora infestans): 95%

Compound: Cc1cc(C)cc(Oc2noc(=O)n2S(=O)(=O)c2c(C)noc2C)c1
- pest or weed control at 50 g/ha (Phytophthora infestans): 96%

Compound: Cc1cc(C)cc(Oc2noc(=O)n2S(=O)(=O)c2c(N)noc2C)c1
- pest or weed control at 50 g/ha (Phytophthora infestans): 95%

Compound: COc1ccc(Oc2noc(=O)n2S(=O)(=O)c2c(N)noc2C)cc1
- pest or weed control at 50 g/ha (Phytophthora infestans): 91%

Compound: COC(=O)c1ccc(Oc2noc(=O)n2S(=O)(=O)c2c(C)noc2C)cc1 [Example 2]
- chromatographic logP [1]: 3.07

Compound: Cc1cccc(C)c1Oc1noc(=O)n1S(=O)(=O)c1c(C)noc1C [Example 3]
- chromatographic logP [1]: 3.54

Compound: Cc1ccc(C(C)C)c(Oc2noc(=O)n2S(=O)(=O)c2c(C)noc2C)c1 [Example 4]
- chromatographic logP [1]: 4.19

Compound: Cc1ccc(Oc2noc(=O)n2S(=O)(=O)c2c(C)noc2C)c(C)c1 [Example 5]
- chromatographic logP [1]: 3.63

Compound: Cc1ccccc1Oc1noc(=O)n1S(=O)(=O)c1c(C)noc1C [Example 7]
- chromatographic logP [1]: 3.28

Compound: Cc1noc(C)c1S(=O)(=O)n1c(Oc2ccc(Cl)cc2)noc1=O [Example 8]
- chromatographic logP [1]: 3.45

Compound: COC(=O)c1ccc(Oc2noc(=O)n2S(=O)(=O)c2c(C)noc2C)cc1 [drawing 39]
- pest or weed control at 50 g/ha (Phytophthora infestans): 86%

Compound: Cc1ccc(Oc2noc(=O)n2S(=O)(=O)c2c(C)noc2C)c(C)c1 [drawing 40]
- pest or weed control at 50 g/ha (Phytophthora infestans): 94%

Compound: Cc1cccc(C)c1Oc1noc(=O)n1S(=O)(=O)c1c(C)noc1C [drawing 41]
- pest or weed control at 50 g/ha (Phytophthora infestans): 88%

Compound: Cc1ccc(C(C)C)c(Oc2noc(=O)n2S(=O)(=O)c2c(C)noc2C)c1 [drawing 42]
- pest or weed control at 50 g/ha (Phytophthora infestans): 95%

Compound: Cc1ccccc1Oc1noc(=O)n1S(=O)(=O)c1c(C)noc1C [drawing 43]
- pest or weed control at 50 g/ha (Phytophthora infestans): 94%

Compound: Cc1noc(C)c1S(=O)(=O)n1c(Oc2ccc(Cl)cc2)noc1=O [drawing 44]
- pest or weed control at 50 g/ha (Phytophthora infestans): 97%
